Experiment [1] concerns the target Matrix metalloproteinase-9 (Homo sapiens, UniProt P14780). Kind of experiment: Inhibition of Gelatinase B, matrix metalloprotease-9.
Experiment [2] has as its target 72 kDa type IV collagenase (Homo sapiens, UniProt P08253). In words: Inhibition of Gelatinase A, matrix metalloprotease-2.
In experiment [3] the test system is L1210. Kind of experiment: Compound was evaluated for the inhibitory activity against L1210 cell lines. In kind it is functional, cell-based. The settings on record: Mus musculus.

Each structure is given as a SMILES string.

Sequence of 72 kDa type IV collagenase (P08253 whole entry): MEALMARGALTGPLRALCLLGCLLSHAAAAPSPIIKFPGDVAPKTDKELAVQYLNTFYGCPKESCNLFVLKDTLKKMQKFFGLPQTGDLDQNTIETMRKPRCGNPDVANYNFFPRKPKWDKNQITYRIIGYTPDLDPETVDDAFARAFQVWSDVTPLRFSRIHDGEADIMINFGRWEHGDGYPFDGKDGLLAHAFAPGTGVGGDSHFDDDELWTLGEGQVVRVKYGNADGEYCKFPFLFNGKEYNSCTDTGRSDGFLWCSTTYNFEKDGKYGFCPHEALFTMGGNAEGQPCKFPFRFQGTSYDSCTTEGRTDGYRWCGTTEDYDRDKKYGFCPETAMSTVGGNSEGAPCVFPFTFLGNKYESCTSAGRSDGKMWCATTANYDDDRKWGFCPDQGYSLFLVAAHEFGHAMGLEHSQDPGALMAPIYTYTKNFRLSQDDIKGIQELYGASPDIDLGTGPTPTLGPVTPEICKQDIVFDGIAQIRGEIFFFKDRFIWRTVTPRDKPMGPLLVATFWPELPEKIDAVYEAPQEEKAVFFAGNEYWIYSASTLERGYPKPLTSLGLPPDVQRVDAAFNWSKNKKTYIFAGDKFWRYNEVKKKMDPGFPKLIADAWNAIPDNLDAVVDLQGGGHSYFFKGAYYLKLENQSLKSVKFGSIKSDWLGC
Sequence of Matrix metalloproteinase-9 (P14780 whole entry): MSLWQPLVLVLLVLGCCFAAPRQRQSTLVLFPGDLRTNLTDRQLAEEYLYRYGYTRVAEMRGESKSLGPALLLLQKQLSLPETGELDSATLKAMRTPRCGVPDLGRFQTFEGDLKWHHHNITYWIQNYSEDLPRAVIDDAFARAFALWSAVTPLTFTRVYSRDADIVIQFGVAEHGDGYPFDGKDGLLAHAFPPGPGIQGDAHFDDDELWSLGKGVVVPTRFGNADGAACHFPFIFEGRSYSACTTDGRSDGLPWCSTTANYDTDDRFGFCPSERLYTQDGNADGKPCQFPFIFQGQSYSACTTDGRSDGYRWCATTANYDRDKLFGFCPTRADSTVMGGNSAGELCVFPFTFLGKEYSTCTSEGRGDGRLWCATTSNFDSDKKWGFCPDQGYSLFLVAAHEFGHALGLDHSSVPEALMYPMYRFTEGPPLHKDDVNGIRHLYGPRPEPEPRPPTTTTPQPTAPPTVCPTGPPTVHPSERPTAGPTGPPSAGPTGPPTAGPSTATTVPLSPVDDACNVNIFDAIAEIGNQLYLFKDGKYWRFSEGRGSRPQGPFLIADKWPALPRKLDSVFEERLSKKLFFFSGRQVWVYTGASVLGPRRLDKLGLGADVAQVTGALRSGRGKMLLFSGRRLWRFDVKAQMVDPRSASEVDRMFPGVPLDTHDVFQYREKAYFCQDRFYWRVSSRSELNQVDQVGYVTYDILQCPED

In the case of `CNC(=O)[C@H](Cc1ccccc1)NC(=O)[C@H]1[C@@H](COCC(=O)NO)[C@@H]1CSc1ccccc1`, the IC50 in experiment [1] is 36 µM; in experiment [2] it was 32 µM; in experiment [3], over 1000 µM.

Usually IC50 stands for the midpoint of a concentration-inhibition curve. Lower therefore signals inhibition by little substance.

The record behind these values is ChEMBL document CHEMBL1152114, “Synthesis of conformationally constrained potential inhibitors of mammalian metalloproteinases” (Bioorg Med Chem Lett, 1997).
